Reference: paper PMC12275099, “VX-445 (elexacaftor) inhibits chloride secretion across human bronchial epithelial cells by directly blocking KCa3.1 channels” (PNAS Nexus, 2025)
Where “and” joins values, the source holds several entries; their conditions need not be identical. Equal entries are not always repeated. Where two headings read alike, the source gives them in different places.

Tests used:
[1] = test system: primary WT CFTR-expressing HBEs; assay: Ussing chamber Isc, forskolin-stimulated Cl- secretion; assay type: cell-based, human; settings: for Isc in the presence of VX-445: single filters
Excerpt: Primary human bronchial epithelial cells (HBEs) were collected from unused or discarded samples from the Center for Organ Recovery and Education via the University of Pittsburgh Pulmonary, Allergy, Critical Care, and Sleep Medicine Lung Biobank and Repository. All experimental procedures involving the use of HBEs were approved by the institutional review board (IRB STUDY19090084) and the Committee for Oversight of Research and Clinical Training Involving Decedents (CORID number 451) at the University of Pittsburgh. At all times, authors were blind to the identity of HBE donors. HBEs were cultured using the Vertex method ([72]). Studies were carried out on WT CFTR HBEs from 11 ([13]) donors and homozygous F508del/F508del CFTR HBEs from five ([5]) separate donors. HBEs were plated on Costar Transwell permeable supports ([…], 6.5 mm insert, polyester membrane, Corning) and grown at an air–liquid interface for 5+ weeks in HBE differentiation medium containing 2% Ultroser-G. Basolateral media were replaced three times per week. For whole-cell patch-clamp studies, HBEs were maintained in BronchiaLife airway media (LifeLine Cell Technology, LS-1047) and plated onto poly-L-lysine-coated coverslips (see below).
Costar Transwell inserts were mounted in a modified Ussing chamber (P2300, Physiologic Instruments) and the monolayers continuously short-circuited (VCC MC8, Physiologic Instruments) by forcing the transepithelial voltage to 0 mV. Short-circuit current (Isc) measurements were taken in symmetric solutions, containing (in mM): 120 NaCl, 25 NaHCO3, 3.3 KH2PO4, 0.8 K2HPO4, 1.2 CaCl2, 1.2 MgCl2, and 10 glucose. The pH of the solution is 7.4 when gassed with 95% O2–5% CO2 at 37°C. Compounds were added cumulatively following the establishment of a new stable current response. Amiloride was added to the apical membrane, while all other compounds were added to both membranes due to their lipophilic nature. In all experiments, 10 µM amiloride was used to inhibit sodium absorption. Percent inhibition was calculated as the change in Isc (ΔIsc) between the forskolin or DCEBIO stable current level and the Isc following addition of the compound being assessed divided by the ΔIsc between the stable forskolin- or DCEBIO-induced Isc and the Isc following bumetanide addition.

[2] = test system: preconstricted mesenteric artery; parameters: method as in PMID 38954478; settings: cited from earlier work

## Cc1nn(C)cc1S(=O)(=O)NC(=O)c1ccc(-n2ccc(OCC(C)(C)C(F)(F)F)n2)nc1N1C[C@@H](C)CC1(C)C [VX-445, elexacaftor]
[1]; 5 µM VX-445, Fig 1D
  percent inhibition of forskolin-stimulated Isc from control: 33%
[1]; Fig 1F, VX-445 10 µM after forskolin and bumetanide
  Isc in the presence of VX-445: 21 and 18 and 15 and 14 and 16 and 19 and 27 and 20
[1]; Fig 2B, VX-445 10 µM after forskolin
  Isc in the presence of VX-445: 12 and 11 and 16 and 20 and 15 and 21 and 19 and 14
[1]; Homo sapiens, 1 µM VX-445, Fig 1D, read-out: percent inhibition of forskolin-stimulated Isc from control
  inhibition at 1 µM: 0%
[1]; Homo sapiens, VX-445 10 µM after VX-661 10 µM, nine filters from three donors, read-out: inhibition of forskolin-stimulated current subsequent to VX-661
  inhibition at 10 µM: 47 ± 2%
[1]; Homo sapiens, VX-445 10 µM, four donors, n = 13 (TRAM-34 series), read-out: inhibition of the forskolin-stimulated current
  inhibition at 10 µM: 56 ± 2%
[1]; Homo sapiens, VX-445 10 µM, 16 experiments from three donors (paxilline series), read-out: inhibition of the forskolin-stimulated Isc
  inhibition at 10 µM: 45 ± 2%
[1]; VX-445 10 µM, 35 filters from five donors
  decrease of the forskolin-induced Cl- current: 47 ± 2%
[1]; applied after forskolin and bumetanide, VX-445 10 µM, acetazolamide 1 µM
  effect on the bumetanide-insensitive current: had no effect
[2]
  effect on preconstricted mesenteric artery: capable of relaxing preconstricted mesenteric artery
